According to US5364871A, “New thiazole derivatives, and pharmaceutical composition comprising the same” (Fujisawa Pharmaceutical Co., Ltd., priority 1989, dated 1994):

Assays:
[1] = tested on: Gastric secretion; assay: Test C: Gastric secretion from lumen perfused stomach in anesthetized rats; type: in vivo, Male Sprague-Dawley rats; conditions: maximal inhibition of acid output, histamine (3 mg/kg/hr) stimulated, 1 mg/kg intravenously
Procedure: Test C (Gastric secretion from lumen perfused stomach
Male Sprague-Dawley rats weighing about 250 g were used. Rats were deprived of food but allowed free access to water for 24 hours. The animals were anesthetized with 1.25 g/kg urethane intraperitoneally. The abdomen was opened and the gastric lumen was perfured with saline throughout the experiment. The perfusate was titrated by an antotitrator with 25 mM sodium hydroxide as a titrant. Gastric secretion was stimulated by intravenous infusion with histamine (3 mg/kg/hr). After reaching plateau, test compound (1 mg/kg) was given intravenously. Drug effect was expressed as maximal inhibition by acid output.

[2] = tested on: Gastric secretion; assay: Test A: Gastric secretion in Heidenhain pouch dogs; type: in vivo; conditions: total acid output, tetragastrin (10 μg/kg/hr) stimulated; 3.2 mg/kg orally; Beagle dogs
Procedure: Test A (Gastric secretion in Heidenhain pouch dogs):
Beagle dogs, weighing about 8-13 kg, were used for the study on gastric secretion. The animals were surgically provided with a vagally denervated Heidenhain pouch. One month or more later, the dogs were fasted overnight. Gastric secretion was stimulated by an intravenous infusion of tetragastrin (10 μg/kg/hr). Gastric samples were collected at 15 min intervals. After its volume was almost constant, test compound (3.2 mg/kg) suspended in 0.1% methyl cellulose solution was administered orally. Acid concentration was determined by titrating an aliquot to pH 7.0 with 0.1N sodium hydroxide solution using automatic titration (Hiranuma RAT-11 Type). Total acid output was calculated by multiplying total volume of gastric samples by acid concentration, and percentage change of total acid output was calculated by comparing with predosing value of test compound.

[3] = tested on: stress ulcer; assay: Test B: Inhibition of stress ulcer; type: in vivo, male Sprague-Dawley rats; conditions: area of ulcers, restraint and water immersion 7 hours; 32 mg/kg orally; rats
Procedure: Test B (Inhibition of stress ulcer):
Five male Sprague-Dawley rats, aged 7 weeks and weighing about 200 g were used per group for the study on stress ulcer after the fast for 24 hours. Each animal was immobilized in a restrain cage and immersed to a level of the xiphoid in a water bath kept 22° C. Each of the test compounds (32 mg/kg) suspended in 0.1% methylcellulose solution was administered orally just before the immobilization. Seven hours later, the animals were sacrificed and their stomachs were removed. The stomach was then fixed with 2% formalin. The area of ulcers was measured for each animal, and percentage of inhibition was calculated by comparing the mean area of ulcers (mm^2) in the test animals with that in the control animals.

[4] = tested on: Helicobacter pyloridis 8008; assay: Test D: Anti-microbial activity (agar dilution method); type: cell-based; conditions: 72 h, Brucella agar plus 5% lysed horse blood, 37° C., 3 days, 10% CO2
Procedure: Test D (Anti-microbial activity):
In vitro antimicrobial activity was determined by the agar dilution method. Test strain was precultured in Brucella broth containing 5% horse serum at 37° C. for 3 days 10^4 cfu were inoculated with a multipoint replicater onto Brucella agar plus 5% lysed horse blood plate containing serial 2-fold dilutions of each drug at 37° C. for 3 days. Incubation was carried out in an atmosphere of 10% CO2. MIC was read after incubation as the lowest drug concentration that inhibited macroscopic colonial growth.

[5] = tested on: HCl-aspirin ulcer; assay: Test E: Inhibition of HCl-aspirin ulcer; type: in vivo, male Sprague-Dawley rats; conditions: length of ulcers; 32 mg/kg orally 30 minutes before aspirin (200 mg/kg in 0.2N HCl); rats
Procedure: Test E (Inhibition of HCl-aspirin ulcer):
Seven male Sprague-Dawley rats, aged 6 weeks and weighing about 200 g were used per group for the study on HCl-aspirin ulcer after the fast for 24 hours. Each of the test compounds (32 mg/kg) suspended in 0.1% methylcellulose solution was administered orally 30 minutes before aspirin administration. Aspirin, suspended in 0.1% methylcellulose solution containing 0.2N HCl, was administered orally at a dose of 200 mg/kg/10 ml. One hour later, the animals were sacrificed and their stomachs were removed. The stomach was then fixed with 2% formalin. The length of ulcers was measured for each animal, and percentage of inhibition was calculated by comparing the mean length of ulcers (mm) in the test animals with that in the control animals.

In the case of `NC(=O)NCc1cccc(-c2csc(N=C(N)N)n2)n1` [(b)], the “Inhibition (%)” value [1] is reported as 98%.
In the case of `CC(=O)NCc1cccc(-c2csc(N=C(N)N)n2)n1` [(a)], the “Inhibition (%)” value [2] is reported as 95%.
For `CCOC(=O)c1nc(-c2csc(N=C(N)N)n2)cs1` [(d)], the “Inhibition (%)” value [3] was 93.9%.
In the case of `CCCCNC(N)=Nc1nc(-c2cccc(CNC(C)=O)n2)cs1` [(e)], the MIC [4] is reported as 0.78 µg/mL and the “Inhibition (%)” value [5] is reported as 98.1%.
In the case of `NC(=O)NCc1nc(-c2csc(N=C(N)N)n2)cs1` [(c)], the “Inhibition (%)” value [1] is reported as 97%.
